According to publication PMC6803965, “A New Class of β–Pyrrolidino-1,2,3-Triazole Derivatives as β-Adrenergic Receptor Inhibitors: Synthesis, Pharmacological, and Docking Studies” (Molecules, 2019):
Converted amounts (≈) assume the structure as drawn. Where two headings read alike, the source gives them in different places.

Legend:
Assay type in all cases: cell-based
[1] = system: Candida albicans; assay: Antimicrobial well method, zone of inhibition; conditions: 1 mg/well
Protocol: (§1) Antimicrobial activity was carried out as described previously. Briefly, 20 mL of sterile Mueller Hinton agar (MHA) was poured in the petri plates and kept for solidification. After solidification, the test cultures were swabbed on the top of the media and kept for 10 min to dry. The required concentration (1 mg/well) of synthesized compounds 5a–l was added to each well and left for 30 min at RT for compound diffusion. Ketoconazole (fungi) and streptomycin (bacteria) used for positive controls. The zone of inhibition was recorded in mm and the experiment was repeated twice.

[2] = system: Enterobacter aerogenes; assay: Antimicrobial well method, zone of inhibition; conditions: Klebsiella aerogenes
Protocol: as §1

[3] = system: Klebsiella pneumoniae; assay: Antimicrobial well method, zone of inhibition
Protocol: as §1

[4] = system: Malassezia pachydermatis; assay: Antimicrobial well method, zone of inhibition
Protocol: as §1

[5] = system: Micrococcus luteus; assay: Antimicrobial well method, zone of inhibition
Protocol: as §1

[6] = system: Proteus vulgaris; assay: Antimicrobial well method, zone of inhibition
Protocol: as §1

[7] = system: Salmonella paratyphi-B; assay: Antimicrobial well method, zone of inhibition
Protocol: as §1

[8] = system: Salmonella typhimurium; assay: Antimicrobial well method, zone of inhibition; conditions: Salmonella enterica
Protocol: as §1

[9] = system: Shigella flexneri; assay: Antimicrobial well method, zone of inhibition
Protocol: as §1

[10] = system: Staphylococcus aureus-MRSA; assay: Antimicrobial well method, zone of inhibition
Protocol: as §1

[11] = system: Staphylococcus aureus; assay: Antimicrobial well method, zone of inhibition
Protocol: as §1

[12] = system: Staphylococcus epidermidis; assay: Antimicrobial well method, zone of inhibition
Protocol: as §1

[13] = system: Enterobacter aerogenes; assay: Minimum inhibitory concentration (MIC); conditions: Klebsiella aerogenes, read-out: Minimum inhibitory concentration
Protocol: (§2) The MIC experiment was carried out according to the standard reference methods. Briefly, the required concentrations of synthesized compounds 5a–l were dissolved in DMSO (Dimethylsulfoxide) in concentrations of 500 µg/mL, 250 µg/mL, 125 µg/mL, 62.5 µg/mL, 31.25 µg/mL, 15.6 µg/mL, and […]. An inoculum of 100 µL from each well (96-well plate) was inoculated. For the positive control, ketoconazole (fungi) and streptomycin (bacteria) was used. The MIC values for the tested bacteria were identified as the lowest inhibiting concentration of compound on the agar plate in visual growth.

[14] = system: Klebsiella pneumoniae; assay: Minimum inhibitory concentration (MIC); conditions: read-out: Minimum inhibitory concentration
Protocol: as §2

[15] = system: Micrococcus luteus; assay: Minimum inhibitory concentration (MIC); conditions: read-out: Minimum inhibitory concentration
Protocol: as §2

[16] = system: Proteus vulgaris; assay: Minimum inhibitory concentration (MIC); conditions: read-out: Minimum inhibitory concentration
Protocol: as §2

[17] = system: Salmonella paratyphi-B; assay: Minimum inhibitory concentration (MIC)
Protocol: as §2

[18] = system: Salmonella typhimurium; assay: Minimum inhibitory concentration (MIC); conditions: Salmonella enterica, read-out: Minimum inhibitory concentration
Protocol: as §2

[19] = system: Shigella flexneri; assay: Minimum inhibitory concentration (MIC)
Protocol: as §2

[20] = system: Staphylococcus aureus-MRSA; assay: Minimum inhibitory concentration (MIC); conditions: read-out: Minimum inhibitory concentration
Protocol: as §2

[21] = system: Staphylococcus aureus; assay: Minimum inhibitory concentration (MIC); conditions: read-out: Minimum inhibitory concentration
Protocol: as §2

[22] = system: Staphylococcus epidermidis; assay: Minimum inhibitory concentration (MIC); conditions: read-out: Minimum inhibitory concentration
Protocol: as §2

[23] = system: A549 cells; assay: Cytotoxicity, aqueous one solution reagent; conditions: for IC50: Homo sapiens, 24 h treatment, read-out: IC50 against A549
Protocol: (§3) The cytotoxic study was carried out as reported previously. Briefly, IMR90, HepG-2, and A549 cells were grown in DMEM (Dulbecco’s Modified Eagle Medium) that contained 10% fetal bovine serum and 1% antibiotics. A total of 15 × 10^3 cells/well were seeded in 96-well plates and incubated under humidified conditions. Cells were treated with varying concentrations of synthesized triazoles for 24 h. After a 24 h treatment, 20 µL aqueous one solution reagent was added to each well and incubated for 3–4 h under a humidified condition. For IMR90 cells, MTT (MTT = 3-(4,5-dimethyl-2-thiazolyl)-2,5-diphenyl-2H-tetrazolium bromide) (5 mg/mL) was added and incubated for 3–4 h in the dark. After incubation, 100 µL of a 10% SDS (Sodium Dodecyl Sulfate) solution (0.01% HCl) was added to each well. The data was taken using an ELISA (enzyme-linked immunosorbent assay) reader at the absorbance of 490 nm for HepG-2 and A549 cells and 570 nm for IMR90 cells. The cell death was calculated using the following formula: Inhibition (%) = ((A − B)/A) × 100 (A—control group, B—treated group).

[24] = system: HepG-2 cells; assay: Cytotoxicity, aqueous one solution reagent; conditions: for IC50: Homo sapiens, HepG2, 24 h treatment, read-out: IC50 against HepG-2
Protocol: as §3

[25] = system: IMR90 cells; assay: Cytotoxicity on normal cells, MTT; conditions: IMR-90, human normal IMR90 cells, 24 h treatment, read-out: IC50 against IMR90
Protocol: as §3

[26] = system: tested bacteria; assay: Antimicrobial well method, result in words; conditions: 1 mg/mL concentration
Protocol: as §1

| Compound | zone of inhibition [1] | zone of inhibition at 1 mg/well [2] | zone of inhibition at 1 mg/well [3] | zone of inhibition at 1 mg/well [5] | zone of inhibition at 1 mg/well [6] | zone of inhibition at 1 mg/well [7] | zone of inhibition at 1 mg/well [8] | zone of inhibition at 1 mg/well [9] | zone of inhibition at 1 mg/well [10] | zone of inhibition at 1 mg/well [11] | zone of inhibition at 1 mg/well [12] | MIC [14] | MIC [15] | MIC [16] | MIC [17] | MIC [19] | MIC [21] | MIC [22] | cytotoxic / anticancer activity against A549 cells [23] | IC50 [23] | further results |
| --- | --- | --- | --- | --- | --- | --- | --- | --- | --- | --- | --- | --- | --- | --- | --- | --- | --- | --- | --- | --- | --- |
| C[C@@H]([C@@H](c1ccccc1)n1cc(CO)nn1)N1CCCC1 [5a, (1R,2S)-1-(1-(1-Phenyl-2-(pyrrolidin-1-yl)propyl)-1H-1,2,3-triazol-4-yl)methanol] | 14 mm | 14 mm | 20 mm | 28 mm | 17 mm | 14 mm | 14 mm | 22 mm | 13 mm | 12 mm | 14 mm | 62.5 µg/mL (≈ 218 µM) | 31.2 µg/mL (≈ 109 µM) | 125 µg/mL (≈ 436 µM) | 250 µg/mL (≈ 873 µM) | 62.5 µg/mL (≈ 218 µM) | 500 µg/mL (≈ 1750 µM) | 250 µg/mL (≈ 873 µM) | promising anticancer activity | 190 ± 1.35 µM | zone of inhibition at 1 mg/well [4]: 12 mm; MIC ([13]; Enterobacter aerogenes): 250 µg/mL (≈ 873 µM); MIC ([18]; Salmonella typhimurium): 250 µg/mL (≈ 873 µM); MIC ([20]; Staphylococcus aureus-MRSA): 250 µg/mL (≈ 873 µM); cytotoxic activity against HepG-2 cells [24]: moderate activity; IC50 [24]: 275 ± 1.52 µM; IC50 [25]: > 250 µM; antimicrobial activity against tested bacteria [26]: promising activity |
| C[C@@H]([C@@H](c1ccccc1)n1cc(COC(=O)c2ccc([N+](=O)[O-])cc2)nn1)N1CCCC1 [5g, (1R,2S)-(1-(1-Phenyl-2-(pyrrolidin-1-yl)propyl)-1H-1,2,3-triazol-4-yl)methyl 4-nitrobenzoate] | 13 mm | 22 mm | 24 mm | 17 mm | 26 mm | 20 mm | 22 mm | 25 mm | 24 mm | 16 mm | 28 mm | 31.2 µg/mL (≈ 71.8 µM) | 125 µg/mL (≈ 287 µM) | 31.2 µg/mL (≈ 71.8 µM) | 62.5 µg/mL (≈ 144 µM) | 31.2 µg/mL (≈ 71.8 µM) | 125 µg/mL (≈ 287 µM) | 31.2 µg/mL (≈ 71.8 µM) | promising anticancer activity | 72 ± 3.21 µM | MIC [13]: 62.5 µg/mL (≈ 144 µM); MIC ([18]; TYPHIMURIUM): 62.5 µg/mL (≈ 144 µM); MIC ([20]; Staphylococcus, MRSA): 31.2 µg/mL (≈ 71.8 µM); IC50 [24]: > 300 µM; IC50 [25]: > 250 µM; antimicrobial activity against tested bacteria [26]: promising activity |
